Assay results from patent US9643967B2, “Pyrrolo[3,2-c]pyridine derivatives as TLR inhibitors” (TAKEDA PHARMACEUTICAL COMPANY LIMITED, priority 2013, dated 2017).

Target: T1, hTLR9 (Homo sapiens, UniProt Q9NR96)
T1 construct: expressed in transfected cells; host or cells: HEK-Blue-hTLR9 cells (HEK293)
T1 sequence (Q9NR96 26-1032): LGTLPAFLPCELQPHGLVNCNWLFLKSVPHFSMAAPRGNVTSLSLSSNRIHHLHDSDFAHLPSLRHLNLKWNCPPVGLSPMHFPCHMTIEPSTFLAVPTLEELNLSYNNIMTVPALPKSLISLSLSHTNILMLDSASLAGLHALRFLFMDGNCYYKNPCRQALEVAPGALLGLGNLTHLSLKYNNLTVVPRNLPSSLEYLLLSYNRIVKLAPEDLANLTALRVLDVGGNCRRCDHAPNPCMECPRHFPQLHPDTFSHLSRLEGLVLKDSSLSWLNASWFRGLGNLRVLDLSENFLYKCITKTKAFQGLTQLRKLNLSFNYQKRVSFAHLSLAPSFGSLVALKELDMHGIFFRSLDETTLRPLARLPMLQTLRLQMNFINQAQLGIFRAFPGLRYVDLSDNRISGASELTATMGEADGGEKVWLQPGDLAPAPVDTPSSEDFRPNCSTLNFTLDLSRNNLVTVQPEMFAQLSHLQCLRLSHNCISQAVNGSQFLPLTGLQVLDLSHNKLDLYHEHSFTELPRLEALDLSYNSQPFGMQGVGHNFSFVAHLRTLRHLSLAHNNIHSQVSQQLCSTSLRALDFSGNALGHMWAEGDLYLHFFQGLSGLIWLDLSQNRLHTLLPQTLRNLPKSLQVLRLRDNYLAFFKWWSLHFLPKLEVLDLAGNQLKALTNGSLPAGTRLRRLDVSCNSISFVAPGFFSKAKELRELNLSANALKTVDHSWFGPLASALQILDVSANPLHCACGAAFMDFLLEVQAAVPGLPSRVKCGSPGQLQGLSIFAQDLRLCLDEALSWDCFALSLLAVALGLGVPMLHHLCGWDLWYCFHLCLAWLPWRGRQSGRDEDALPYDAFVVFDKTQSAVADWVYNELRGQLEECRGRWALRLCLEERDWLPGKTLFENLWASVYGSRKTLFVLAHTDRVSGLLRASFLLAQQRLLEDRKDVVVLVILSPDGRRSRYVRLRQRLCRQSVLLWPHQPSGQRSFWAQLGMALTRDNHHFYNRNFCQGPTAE
Test: hTLR9 antagonism (SEAP inhibition assay) in HEK-Blue-hTLR9 (HEK293) cells, ODN-2006 stimulated
Format: cell-based
Settings: 1 μM; SEAP, HEK-Blue-hTLR9 cells

For Cc1cc2c(cc(CCN3CCOCC3)n2C)c(C2CCC(N3CCN(C(C)C)CC3)CC2)n1 (centres unmarked) [Example B27, 4-[2-[4-[4-(4-isopropylpiperazin-1-yl)cyclohexyl]-1,6-dimethyl-pyrrolo[3,2-c]pyridin-2-yl]ethyl]morpholine], the “hTLR9 inhibitory activity (% at 1 μM)” value was 95.8%.

Same assay, conditions: HEK-Blue hTLR9, 1 μM; SEAP, HEK-Blue-hTLR9 cells; read-out: hTLR9 inhibitory activity (% at 1 μM)

Going from Cc1nc(-c2ccc(N3CCN(C(C)C)CC3)cc2)c2cc(CCN3CCCC3)[nH]c2c1C [Example B10, 4-[4-(4-isopropylpiperazin-1-yl)phenyl]-6,7-dimethyl-2-(2-pyrrolidin-1-ylethyl)-1H-pyrrolo[3,2-c]pyridine] to Cc1cc2[nH]c(CCCN3CCCCC3)cc2c(-c2ccc(N3CCN(C(C)C)CC3)cc2)n1 [Example C5, 4-[4-(4-isopropylpiperazin-1-yl)phenyl]-6-methyl-2-[3-(1-piperidyl)propyl]-1H-pyrrolo[3,2-c]pyridine], the inhibition at 1 µM rises from 93.1% to 94.7%.

First: Cc1cc2c(cc(CCN3CCOCC3)n2C)c(-c2ccc(N3CCN(C(C)C)CC3)cc2)n1 [Example B11, 4-[2-[4-[4-(4-isopropylpiperazin-1-yl)phenyl]-1,6-dimethyl-pyrrolo[3,2-c]pyridin-2-yl]ethyl]morpholine]
Second: Cc1cc2c(cc(CCCN3CCOCC3)n2C)c(-c2ccc(N3CCN(C(C)C)CC3)cc2)n1 [Example C6, 4-[3-[4-[4-(4-isopropylpiperazin-1-yl)phenyl]-1,6-dimethyl-pyrrolo[3,2-c]pyridin-2-yl]propyl]morpholine]
The inhibition at 1 µM of the first is lower: 80% for the first, 99.1% for the second.

Compared with Cc1cc2c(cc(CCN3CCOCC3)n2C)c(-c2ccc(N3CCN(C(C)C)CC3)c(F)c2)n1 [Example B14, 4-[2-[4-[3-fluoro-4-(4-isopropylpiperazin-1-yl)phenyl]-1,6-dimethyl-pyrrolo[3,2-c]pyridin-2-yl]ethyl]morpholine], Cc1cc2c(cc(CCN3CCOCC3)n2C)c(-c2ccc(N3CCN(C(C)C)CC3)c(C)c2)n1 [Example B16, 4-[2-[4-[4-(4-isopropylpiperazin-1-yl)-3-methyl-phenyl]-1,6-dimethyl-pyrrolo[3,2-c]pyridin-2-yl]ethyl]morpholine] is higher in inhibition at 1 µM: 88.7% for the first, 91% for the second.

Compared with Cc1cc2c(cc(CCN3CCOCC3)n2C)c(-c2ccc(N3CCN(C(C)C)CC3)cc2C)n1 [Example B15, 4-[2-[4-[4-(4-isopropylpiperazin-1-yl)-2-methyl-phenyl]-1,6-dimethyl-pyrrolo[3,2-c]pyridin-2-yl]ethyl]morpholine], Cc1cc2c(cc(CCN3CCOCC3)n2C)c(-c2ccc(N3CCN(C(C)C)CC3)cc2F)n1 [Example B19, 4-[2-[4-[2-fluoro-4-(4-isopropylpiperazin-1-yl)phenyl]-1,6-dimethyl-pyrrolo[3,2-c]pyridin-2-yl]ethyl]morpholine] is higher in inhibition at 1 µM: 93.3% for the first, 100% for the second.

Compared with Cc1cc2c(cc(CCN3CCOCC3)n2C)c(-c2ccc(N3CCN(C(C)C)CC3)cc2C(F)(F)F)n1 [Example B17, 4-[2-[4-[4-(4-isopropylpiperazin-1-yl)-2-(trifluoromethyl)phenyl]-1,6-dimethyl-pyrrolo[3,2-c]pyridin-2-yl]ethyl]morpholine], Cc1cc2c(cc(CCN3CCOCC3)n2C)c(-c2ccc(N3CCN(C(C)C)CC3)c(C(F)(F)F)c2)n1 [Example B18, 4-[2-[4-[4-(4-isopropylpiperazin-1-yl)-3-(trifluoromethyl)phenyl]-1,6-dimethyl-pyrrolo[3,2-c]pyridin-2-yl]ethyl]morpholine] is higher in inhibition at 1 µM: 91.5% for the first, 99.3% for the second.

Going from COc1cc(N2CCN(C(C)C)CC2)ccc1-c1nc(C)cc2c1cc(CCN1CCOCC1)n2C [Example B20, 4-[2-[4-[4-(4-isopropylpiperazin-1-yl)-2-methoxy-phenyl]-1,6-dimethyl-pyrrolo[3,2-c]pyridin-2-yl]ethyl]morpholine] to COc1cc(-c2nc(C)cc3c2cc(CCN2CCOCC2)n3C)ccc1N1CCN(C(C)C)CC1 [Example B22, 4-[2-[4-[4-(4-isopropylpiperazin-1-yl)-3-methoxy-phenyl]-1,6-dimethyl-pyrrolo[3,2-c]pyridin-2-yl]ethyl]morpholine], the inhibition at 1 µM falls from 100% to 99.7%.

First: Cc1cc2c(cc(CCN3CCOCC3)n2C)c(-c2cccc(N3CCN(C(C)C)CC3)c2)n1 [Example B21, 4-[2-[4-[3-(4-isopropylpiperazin-1-yl)phenyl]-1,6-dimethyl-pyrrolo[3,2-c]pyridin-2-yl]ethyl]morpholine]
Second: Cc1cc2c(cc(CCN3CCOCC3)n2C)c(-c2ccc(C3CCN(C(C)C)CC3)cc2)n1 [Example B31, 4-[2-[4-[4-(1-isopropyl-4-piperidyl)phenyl]-1,6-dimethyl-pyrrolo[3,2-c]pyridin-2-yl]ethyl]morpholine]
The inhibition at 1 µM of the first is higher: 100% for the first, 99.4% for the second.

Compared with Cc1cc2c(cc(CCN3CCOCC3)n2C)c(-c2ccc(N3CCN(C(C)C)[C@@H](C)C3)cc2)n1 [Example B23, 4-[2-[4-[4-[(3S)-4-isopropyl-3-methyl-piperazin-1-yl]phenyl]-1,6-dimethyl-pyrrolo[3,2-c]pyridin-2-yl]ethyl]morpholine], Cc1cc2[nH]c(CCCN3CCOCC3)cc2c(-c2ccc(N3CCN(C(C)C)CC3)cc2)n1 [Example C3, 4-[3-[4-[4-(4-isopropylpiperazin-1-yl)phenyl]-6-methyl-1H-pyrrolo[3,2-c]pyridin-2-yl]propyl]morpholine] is lower in inhibition at 1 µM: 99.2% for the first, 94.8% for the second.

Compared with Cc1cc2c(cc(CCN3CCOCC3)n2C)c(C2CCC(N3CCN(C(C)C)CC3)CC2)n1 (centres unmarked) [Example B26, 4-[2-[4-[4-(4-isopropylpiperazin-1-yl)cyclohexyl]-1,6-dimethyl-pyrrolo[3,2-c]pyridin-2-yl]ethyl]morpholine], CC(C)N1CCN(c2ccc(-c3nccc4[nH]c(CCCN5CCOCC5)cc34)cc2)CC1 [Example C1, 4-[3-[4-[4-(4-isopropylpiperazin-1-yl)phenyl]-1H-pyrrolo[3,2-c]pyridin-2-yl]propyl]morpholine] is higher in inhibition at 1 µM: 89.9% for the first, 99.2% for the second.

In the case of CN1CCN(c2ccc(-c3nccc4[nH]c(CCCN5CCOCC5)cc34)cc2)CC1 [Example C2, 4-[3-[4-[4-(4-methylpiperazin-1-yl)phenyl]-1H-pyrrolo[3,2-c]pyridin-2-yl]propyl]morpholine], the inhibition at 1 µM is reported as 100%.
